# Test results as given in paper PMC3116712 (ACS medicinal chemistry letters, 2011).
# Target: WT A/M2 proton channel (Influenza A virus, UniProt P0DOF5)
# Assay type: cell-based
# Settings: TEVC
# WT A/M2 proton channel, sequence (P0DOF5 whole entry, looked up): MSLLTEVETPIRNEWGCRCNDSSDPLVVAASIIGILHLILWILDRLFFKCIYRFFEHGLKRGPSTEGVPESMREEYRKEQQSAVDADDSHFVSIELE
row,Compound,activity against WT A/M2 channel (in words)
1,"O=S(=O)(O)C12CC3CC(CC(C3)C1)C2 [Compound 3, 1-adamantyl sulfonic acid]",inactive
2,O=C1CC2(CCCCC2)CC(=O)N1 [Compound 16],only weakly active
3,NN1C(=O)CC2(CCCCC2)CC1=O [Compound 17],only weakly active
4,OC1C2C3CC4C1C1C2CC3C41 (stereo not drawn) [Compound 19],only moderate inhibition
5,Cl.NC12CC3CC(C1)CC(CO)(C3)O2 [Compound 25],not active
6,CC12CC3(O)CC1(C)CC3(O)C2 [Compound 26],only moderately active
